The results in this text go back to patent publication US12038445B2, “Liver disease-related biomarkers and methods of use thereof” (Human Metabolomics Institute, Inc., priority 2016, dated 2024).

Entries after “also recorded” stand apart in the source; their conditions may differ.

The subject of data set [1] is WRL-68. The experiment in a line: Cell proliferation after BA treatment, WRL-68. Type of data set: cell-based, human. The following applies: BA treatment 14 days in high glucose (27.5 mM) and oleic acid (0.3 mM). How it is done: (§1) Normal human hepatic cell lines WRL-68 and THLE-2 were purchased from Sigma. For BA treatment, cells were harvested, rinsed twice in PBS, resuspended in sugar-free DMEM (Life Technologies) supplemented with 10% charcoal-stripped FBS and seeded into 6-well plate at a density of 5×10^4/well. […] After 14 days treatment, normal medium (DMEM-F12 containing 10% FBS) were added into each well to replace the spent media. Cell proliferation and anchorage-independent growth assays were performed in the normal medium. Additionally, western blot assay was performed to analyze the alteration of oncoprotein c-myc expression.

A short description of data set [2]: Male mice treated with STZ alone. The following applies: male mice treated with STZ alone for 20 weeks. Type of data set: in vivo.
In a further data set the test system is THLE-2. The data set can be described thus: Cell proliferation after BA treatment, THLE-2. Type of data set: cell-based, human. The settings on record: BA treatment 14 days in high glucose (27.5 mM) and oleic acid (0.3 mM). As to the method: as §1
The next data set concerns HepG2. The data set can be described thus: Cell proliferation after BA treatment, HepG2. Type of data set: cell-based, human. The following applies: BA treatment 14 days, 100 μM. How it is done:
(§2) Human cancer cell line, HepG2, was purchased from Sigma and maintained in DMEM-F12 (Life Technologies) supplemented with 10% fetal bovine serum (FBS, Life Technologies). For BA treatment, cells were harvested, rinsed twice with PBS, seeded in sugar-free DMEM (Life Technologies) supplemented with 10% charcoal-stripped FBS and 6 mM glucose. […] The spent media was replaced by fresh normal medium (DMEM-F12 containing 10% FBS) 14 days later. And then cells were used for cell proliferation assay and western blot analysis for the tumor suppressor protein CEBPa.

The test system of another data set is c-myc. The data set can be described thus: Western blot of oncoprotein c-myc in WRL-68 cells. Type of data set: cell-based, human. As to the method: as §1, with “5×10^4/well. We set the glucose (Glc, Sigma) at 27.5 mM and Oleic acid (OA, Sigma) at 0.3 mM to mimic high glucose and fat conditions in vitro.” for “5×10^4/well.”
(§3) Primary antibodies for c-myc (Santa Cruz), CEBPa (Santa Cruz) and Actin (Li-cor) were purchased and used with a diluted concentration as indicated by the manufacturers.

Data set [3] deals with WRL-68. The data set can be described thus: Anchorage-independent growth assay, WRL-68. The following applies: BA treatment under high glucose and high fat condition. It is filed as cell-based, human. How it is done:
as §1, with “5×10^4/well. We set the glucose (Glc, Sigma) at 27.5 mM and Oleic acid (OA, Sigma) at 0.3 mM to mimic high glucose and fat conditions in vitro.” for “5×10^4/well.”

Another data set concerns CEBPα. The experiment in a line: Western blot of tumor suppressor protein CEBPα in HepG2 cells. It is filed as cell-based, human. As to the method:
as §2, §3

Take `CC(CCC(=O)NCC(=O)O)C1CCC2C3C(O)CC4CC(O)CCC4(C)C3CCC12C` (centres unmarked) [GCDCA, glycochenodeoxycholic acid]: the WRL-68 proliferation result in the data set on WRL-68 [1] is reported as “very little influence”.

`CN(N=O)C(=O)N[C@H]1C(O)O[C@H](CO)[C@@H](O)[C@@H]1O` (mixture of isomers) [STZ, streptozotocin]: the HCC formation result in data set [2] is listed as “no HCC was observed”.

As to `C[C@H](CCC(=O)O)[C@H]1CC[C@H]2[C@@H]3[C@H](O)C[C@@H]4C[C@H](O)CC[C@]4(C)[C@H]3C[C@H](O)[C@]12C` [CA, cholic acid], the THLE-2 proliferation result in the data set on THLE-2 was “significantly promoted”. In addition, the HepG2 cell proliferation entry in the data set with HepG2 is given as “significantly promoted”. Further, in the data set on WRL-68 [1], the WRL-68 proliferation result is “significantly promoted”.

In the case of `C[C@H](CCC(=O)NCCS(=O)(=O)O)[C@H]1CC[C@H]2[C@@H]3[C@H](O)C[C@@H]4C[C@H](O)CC[C@]4(C)[C@H]3C[C@H](O)[C@]12C` [TCA, taurocholic acid], the WRL-68 proliferation entry in the data set on WRL-68 [1] is “very little influence”.

For the molecule `C[C@H](CCC(=O)O)[C@H]1CC[C@H]2[C@@H]3CC[C@@H]4C[C@H](O)CC[C@]4(C)[C@H]3C[C@H](O)[C@]12C` [DCA, deoxycholic acid], the THLE-2 proliferation entry in the data set on THLE-2 is on record as “significantly promoted”. Further, the HepG2 cell proliferation entry in the data set on HepG2 was “significantly promoted”. In the data set with c-myc, the “expression of oncoprotein c-myc” value is recorded as “increased”. Moreover, in the data set with WRL-68 [3], the “anchorage-independent growth of WRL-68 compared to those treated with high glucose and high fat” value was “significantly increased”; the “anchorage-independent growth of WRL-68 compared with parental cells” value is recorded as “didn't enhance”. The WRL-68 proliferation result with WRL-68 [1] is “significantly promoted”.

On to `C[C@H](CCC(=O)NCCS(=O)(=O)O)[C@H]1CC[C@H]2[C@@H]3[C@H](O)C[C@@H]4C[C@H](O)CC[C@]4(C)[C@H]3CC[C@]12C` [TCDCA, taurochenodeoxycholic acid], for which the THLE-2 proliferation entry with THLE-2 is on record as “significantly promoted”. The HepG2 cell proliferation result in the data set with HepG2 is reported as “significantly promoted; also recorded: markedly increased”. Further, the “expression of oncoprotein c-myc” value in the data set with c-myc is on record as “increased”. In the data set with WRL-68 [1], the WRL-68 proliferation result is “significantly promoted”. For the same molecule, the “expression of tumor suppressor gene CEBPα” value in the data set on CEBPα was “reduced”.
